# Test results from paper PMC4917254 (PLoS ONE, 2016).
# Where “and” joins values, the source holds several entries; their conditions need not be identical. Identical values can stand only once. Counter-ions that a name gives are not always drawn. Like-named read-outs stand apart in the source and are kept apart here.
# Tests used:
# α2β2γ2L GABAARs = α2β2γ2L GABAARs (Homo sapiens, UniProt P18507+P47869+P47870); conditions: Hill slope of GABA curve
# Method: (§1) The expression and functional characterisation of recombinant GABAARs in Xenopus oocytes were performed as previously described. The subunit mRNA ratios for the expression of αβγ receptors were adjusted according to the β subunit isoform in that when β2-containing receptors were expressed, a 1:1:3 ratio was used, whereas when β1- or β3-containing receptors were expressed, a 10:1:10 ratio was used to minimise the expression of homomeric β1/3 homomeric receptors. To express α4β2δ receptors, a 5:1:5 ratio was used, and the pharmacological characteristics of this receptor were as described in Hartiadi et al. (2016). The injection ratio used for the expression of α1β2 and β2γ2L receptors were 1:1 and 1:3 respectively. Approximately 2 to 10 ng of mRNA mixture was injected into each oocyte. Injected oocytes were stored in ND96 storage solution supplemented with 50 μg/mL gentamycin and tetracycline at 18°C.
# (§2) Two-electrode voltage clamp recordings were performed on oocytes 2–5 days post-injection at room temperature (20–25°C) using a GeneClamp 500B amplifier (ADInstruments, Sydney, NSW, Australia) or a Warner OC-725C Oocyte Clamp (Warner Instrument Corp, Hamden, CT, USA). […]
# (§3) Alternatively, the modulatory effect was expressed as the fold of potentiation, as shown in Eq 3.
# β2γ2L GABAARs = biological target: T1, β2γ2L GABAARs (Homo sapiens, UniProt P18507+P47870); assay: Two-electrode voltage clamp, recombinant β2γ2L GABAARs in Xenopus oocytes; format: cell-based; conditions: Hill slope of GABA curve
# T1 construct: expressed in transfected cells; host or cells: Xenopus laevis oocytes injected with mRNA
# Method: as §1, §2, §3
# α3β2γ2L GABAARs = biological target: T2, α3β2γ2L GABAARs (Homo sapiens, UniProt P18507+P34903+P47870); assay: Two-electrode voltage clamp, recombinant α3β2γ2L GABAARs in Xenopus oocytes; format: cell-based; conditions: Hill slope of GABA curve
# T2 construct: expressed in transfected cells; host or cells: Xenopus laevis oocytes injected with mRNA (1:1:3)
# Method: as §1, §2, §3
# α1β3N265Mγ2L GABAARs = biological target: T3, α1β3N265Mγ2L GABAARs (Homo sapiens, UniProt P14867+P18507+P28472, N290M); assay: Two-electrode voltage clamp, mutant α1β3N265Mγ2L GABAARs in Xenopus oocytes; format: cell-based
# T3 construct: expressed in transfected cells; host or cells: Xenopus laevis oocytes injected with mRNA (10:1:10)
# Excerpt: (§4) Human complementary DNAs (cDNAs) of GABAAR subunits used in this study and their corresponding subcloned vectors include: α1, β1, β2 and γ2L in pCDM8; α2 and α3 in pCDNA3.1; α4 and δ in pCDNA1/Amp; α5 in pCDNA3; β3 in pGEMHE. […] Linearised plasmid DNAs were used as templates for the synthesis of messenger RNAs (mRNAs) using the mMessage mMachine T7 transcript kit from Ambion (Austin, TX, USA). Mutations were introduced to various GABAAR subunits of interest using the QuikChange II Site-Directed Mutagenesis Kit. For the α1M236W point mutation, forward primer 5′-[…]-3′ and reverse primer 5′-[…]-3′ were used. For the β2M286W point mutation, forward primer 5′-[…]-3′ and reverse primer 5′- […]-3′ were used. For the β3N265M point mutation, forward primer 5′- […]-3′ and reverse primer 5′-[…]-3′ were used.
# as §1
# (§5) Two-electrode voltage clamp recordings were performed on oocytes 2–5 days post-injection at room temperature (20–25°C) using a GeneClamp 500B amplifier (ADInstruments, Sydney, NSW, Australia) or a Warner OC-725C Oocyte Clamp (Warner Instrument Corp, Hamden, CT, USA). All experiments were conducted at a holding potential of –60 mV, and data were acquired with a PowerLab 2/25, and LabChart (version 5.0.2) software (ADInstruments, Sydney, NSW, Australia). The recording microelectrodes (0.2–1.1 MΩ) were generated from capillary glass (Harvard Apparatus, Holliston, MA, USA) using a single-stage glass microelectrode puller (Narishige, Tokyo, Japan), and were filled with 3 M KCl solution.
# (§6) Perfusates containing these chemicals were made up fresh before each application. […] All experiments were performed using at least two different batches of oocytes.
# (§7) Prism (version 5.04; GraphPad Software, La Jolla, CA, USA) was used for data analysis. All data are presented as mean ± standard error of the means (SEM).
# as §3
# α5β2γ2L GABAARs = biological target: T4, α5β2γ2L GABAARs (Homo sapiens, UniProt P18507+P31644+P47870); assay: Two-electrode voltage clamp, recombinant α5β2γ2L GABAARs in Xenopus oocytes; format: cell-based; conditions: Hill slope of GABA curve
# T4 construct: expressed in transfected cells; host or cells: Xenopus laevis oocytes injected with mRNA (1:1:3)
# Method: as §1, §2, §3
# α4β2δ GABAARs = biological target: T5, α4β2δ GABAARs (Homo sapiens, UniProt O14764+P47870+P48169); assay: Two-electrode voltage clamp, recombinant α4β2δ GABAARs in Xenopus oocytes; format: cell-based; conditions: for nH ± SEM: Hill slope of GABA curve, α4β2δ
# T5 construct: expressed in transfected cells; host or cells: Xenopus laevis oocytes injected with mRNA (5:1:5)
# Method: as §1, §5, §6, §7, §3
# α1β3γ2L GABAARs = biological target: T6, α1β3γ2L GABAARs (Homo sapiens, UniProt P14867+P18507+P28472); assay: Two-electrode voltage clamp, recombinant α1β3γ2L GABAARs in Xenopus oocytes; format: cell-based
# T6 construct: expressed in transfected cells; host or cells: Xenopus laevis oocytes injected with mRNA (10:1:10)
# Method: as §1, §2, §3
# α1β1γ2L GABAARs = biological target: T7, α1β1γ2L GABAARs (Homo sapiens, UniProt P14867+P18505+P18507); assay: Two-electrode voltage clamp, recombinant α1β1γ2L GABAARs in Xenopus oocytes; format: cell-based; conditions: Hill slope of GABA curve
# T7 construct: expressed in transfected cells; host or cells: Xenopus laevis oocytes injected with mRNA (10:1:10)
# Method: as §1, §2, §3
# α1β2M286Wγ2L GABAARs = biological target: T8, α1β2M286Wγ2L GABAARs (Homo sapiens, UniProt P14867+P18507+P47870, M310W); assay: Two-electrode voltage clamp, mutant α1β2M286Wγ2L GABAARs in Xenopus oocytes; format: cell-based
# T8 construct: expressed in transfected cells; host or cells: Xenopus laevis oocytes injected with mRNA
# Excerpt: as §4, §1, §5, §6, §7, §3
# α1β2γ2L GABAARs = biological target: T9, α1β2γ2L GABAARs (Homo sapiens, UniProt P14867+P18507+P47870); assay: Two-electrode voltage clamp, recombinant α1β2γ2L GABAARs in Xenopus oocytes; format: cell-based; conditions: for nH ± SEM: Hill slope of GABA curve, α1β2γ2L
# T9 construct: expressed in transfected cells; host or cells: Xenopus laevis oocytes injected with mRNA (1:1:3)
# Method: as §1, §5, §6, §7, §3
# α1M236Wβ2γ2L GABAARs = biological target: T10, α1M236Wβ2γ2L GABAARs (Homo sapiens, UniProt P14867+P18507+P47870, M263W); assay: Two-electrode voltage clamp, mutant α1M236Wβ2γ2L GABAARs in Xenopus oocytes; format: cell-based; conditions: for agonist effect, mutant vs wild-type: p > 0.05, n = 5
# T10 construct: expressed in transfected cells; host or cells: Xenopus laevis oocytes injected with mRNA
# Excerpt: as §4, §1, §5, §6, §7, §3
# [1] = system: α1β2, β2γ2L, αxβ2γ2L (x = 1, 2, 3 or 5), α1βxγ2L (x = 1, 2 or 3) and α4β2δ GABAARs; assay: Kavain potentiation compared across GABAAR subtypes (two-electrode voltage clamp); format: cell-based, human; conditions: 300 μM kavain, GABA EC3-7 (EC30 at α4β2δ), Tukey's test
# Method: as §1, §2
# Alternatively, the modulatory effect was expressed as the fold of potentiation, as shown in Eq 3. […]
molecule,measurement,setting,value
"NCCCC(=O)O [GABA, γ-Aminobutyric acid]",nH ± SEM,α2β2γ2L GABAARs,1.4 ± 0.041
same,nH ± SEM,β2γ2L GABAARs,0.63 ± 0.034
same,nH ± SEM,α3β2γ2L GABAARs,1.2 ± 0.054
same,nH ± SEM,"α1β3N265Mγ2L GABAARs; Hill slope of GABA curve, α1β3N265Mγ2L",1.4 ± 0.083
same,nH ± SEM,α5β2γ2L GABAARs,1.0 ± 0.078
same,nH ± SEM,α4β2δ GABAARs,0.70 ± 0.095
same,nH ± SEM,α4β2δ GABAARs; + 300 μM kavain,0.59 ± 0.11
same,nH ± SEM,"α1β3γ2L GABAARs; Hill slope of GABA curve, α1β3γ2L",1.2 ± 0.070
same,nH ± SEM,α1β1γ2L GABAARs,1.1 ± 0.059
same,nH ± SEM,"α1β2M286Wγ2L GABAARs; Hill slope of GABA curve, α1β2M286Wγ2L",1.1 ± 0.036
same,nH ± SEM,α1β2γ2L GABAARs,0.99 ± 0.062
same,nH ± SEM,α1β2γ2L GABAARs; + 300 μM kavain,0.75 ± 0.026
same,nH ± SEM,"α1M236Wβ2γ2L GABAARs; Hill slope of GABA curve, mutant printed as α1M286Wβ2γ2L in table",0.80 ± 0.053
CN1C(=O)CN=C(c2ccccc2)c2cc(Cl)ccc21 [diazepam],"enhancement of GABA current, normalised to 10 μM GABA responses",α1β2γ2L GABAARs,260 ± 4.2%
same,flumazenil sensitivity of diazepam enhancement,α1β2γ2L GABAARs,flumazenil-sensitive
"CCOC(=O)c1cncn1[C@H](C)c1ccccc1 [etomidate, Etomidate hydrochloride (HCl)]",modulation (3 μM) and activation (30 μM) of the point-mutated receptors,α1β3N265Mγ2L GABAARs; data not shown,did not modulate (at 3 μM) nor activate (at 30 μM)
same,etomidate sensitivity (modulatory and agonist effects),α1β2M286Wγ2L GABAARs; data not shown,abolished
same,"enhancement of GABA EC3 responses, % of maximal GABA responses",α1β2γ2L GABAARs,53 ± 2.6% and 45 ± 3.1%
same,"modulatory effect on GABA EC3 (1 μM) responses, mutant vs wild-type","α1M236Wβ2γ2L GABAARs; 3 μM etomidate, p < 0.0001, n = 5",significantly attenuated
same,"agonist effect, mutant vs wild-type",α1M236Wβ2γ2L GABAARs; 30 μM etomidate,not significantly different from wild-type receptors
CCOC(=O)c1ncn2c1CN(C)C(=O)c1cc(F)ccc1-2 [flumazenil],effect of flumazenil alone on GABA responses,α1β2γ2L GABAARs; 10 μM GABA + 10 μM flumazenil,did not alter GABA responses
CC(C)c1cccc(C(C)C)c1O [propofol],propofol activity at the point-mutated receptors,α1β3N265Mγ2L GABAARs,Pronounced attenuation
same,"receptor modulation in the presence of GABA EC3 (1 μM), mutant vs wild-type","α1β2M286Wγ2L GABAARs; 10 μM propofol, p < 0.001",significantly diminished
same,"direct activation, mutant vs wild-type","α1β2M286Wγ2L GABAARs; 100 μM propofol, p > 0.05",unaffected
same,"elicited current, % of the maximal propofol responses",α1β2γ2L GABAARs,91 ± 1.5%
same,"enhancement of GABA EC3 responses, % of the maximal GABA responses",α1β2γ2L GABAARs,45 ± 3.5% and 50 ± 4.8%
same,"modulatory effect on GABA EC3 (1 μM) responses, mutant vs wild-type","α1M236Wβ2γ2L GABAARs; 10 μM propofol, p < 0.01, n = 5",significantly attenuated
same,"agonist effect, mutant vs wild-type",α1M236Wβ2γ2L GABAARs; 100 μM propofol,not significantly different from wild-type receptors
DL-kavain,"current elicited by kavain alone, % of GABA EC3 responses",α1β3N265Mγ2L GABAARs; 300 μM kavain,3.3 ± 1.0%
same,kavain modulation of GABA EC3 responses,"α1β3N265Mγ2L GABAARs; GABA EC3 + 300 μM kavain, p < 0.001 vs α1β3γ2L",110 ± 14%
same,increase of the maximal response evoked by GABA,"α4β2δ GABAARs; 300 μM kavain, p < 0.0001",two fold
same,kavain modulation of GABA EC3 responses,α1β3γ2L GABAARs; GABA EC3 + 300 μM kavain,260 ± 18%
same,"current elicited by kavain alone, % of the GABA EC3 responses","α1β2M286Wγ2L GABAARs; 300 μM kavain, p < 0.0001 vs wild-type",96 ± 5.8%
same,"modulatory effect on GABA EC3-elicited responses, % of GABA EC3","α1β2M286Wγ2L GABAARs; GABA EC3 + 300 μM kavain, p > 0.05 vs α1β2γ2L",270 ± 8.7%
same,GABA-enhancing action of kavain in the presence of flumazenil,α1β2γ2L GABAARs; 10 μM GABA + 300 μM kavain + 10 μM flumazenil,unaffected in the presence of flumazenil
same,"enhancement of GABA current, normalised to 10 μM GABA responses","α1β2γ2L GABAARs; 10 μM GABA + 300 μM kavain, n = 5",260 ± 11%
same,"intrinsic agonist activity, currents relative to the 10 mM GABA responses","α1β2γ2L GABAARs; 300 μM kavain alone, n = 5",< 1%
same,enhancement of GABA-elicited responses,"α1β2γ2L GABAARs; 300 μM kavain, GABA EC3 (10 μM), n = 6",170 ± 23%
same,enhancement depending on GABA concentration,"α1β2γ2L GABAARs; 300 μM kavain, GABA concentration-response curve",modest enhancement at GABA concentrations below EC45
same,"current elicited by kavain alone, % of the GABA EC3 responses","α1β2γ2L GABAARs; 300 μM kavain, wild-type, n = 4",15 ± 3.6%
same,"potentiation by co-application, % of GABA EC3 responses","α1β2γ2L GABAARs; GABA EC3 + 300 μM kavain, n = 4, kavain-elicited current not deducted",250 ± 7.8%
same,"current elicited by kavain alone, % of the GABA EC3 responses","α1M236Wβ2γ2L GABAARs; 300 μM kavain, n = 6",approximately 63 ± 5.2%
same,"potentiation by co-application, % of GABA EC3 responses","α1M236Wβ2γ2L GABAARs; GABA EC3 + 300 μM kavain, n = 6, kavain-elicited current not deducted",220 ± 11%
same,subtype selectivity of potentiation,[1],no significant subtype selectivity
